ChEMBL document CHEMBL4346705, “(±)-trans-Dihydronarciclasine and (±)-trans-dihydrolycoricidine analogues modified in their ring A: Evaluation of their anticancer activity and a SAR study” (2019)

What was measured:
Format in all cases: functional
[1] = system: SF-295; assay: Cytotoxicity against human SF295 cells assessed as growth inhibition after 48 hrs by sulforhodamine B assay; conditions: SF-295, 48 h; for CC50: read-out: LC50 (the source's name)
[2] = system: ACHN; assay: Cytotoxicity against human ACHN cells assessed as growth inhibition after 48 hrs by sulforhodamine B assay
[3] = system: Malme-3M; assay: Cytotoxicity against human MALME-3M cells assessed as growth inhibition after 48 hrs by sulforhodamine B assay
[4] = system: NCI/ADR-RES; assay: Cytotoxicity against human NCI-ADR-RES cells assessed as growth inhibition after 48 hrs by sulforhodamine B assay; conditions: for CC50: read-out: LC50 (the source's name)
[5] = system: K562; assay: Cytotoxicity against human K562 cells assessed as growth inhibition after 48 hrs by sulforhodamine B assay; conditions: K562, 48 h; for CC50: read-out: LC50 (the source's name)
[6] = system: PC-3; assay: Cytotoxicity against human PC3 cells assessed as growth inhibition after 48 hrs by sulforhodamine B assay; conditions: PC-3, 48 h
[7] = system: SNB-75; assay: Cytotoxicity against human SNB75 cells assessed as growth inhibition after 48 hrs by sulforhodamine B assay; conditions: SNB-75, 48 h
[8] = system: SK-OV-3; assay: Cytotoxicity against human SKOV3 cells assessed as growth inhibition after 48 hrs by sulforhodamine B assay; conditions: SK-OV-3, 48 h; for CC50: read-out: LC50 (the source's name)
[9] = system: SN12C; assay: Cytotoxicity against human SN12C cells assessed as growth inhibition after 48 hrs by sulforhodamine B assay; conditions: for CC50: read-out: LC50 (the source's name)
[10] = system: EKVX; assay: Cytotoxicity against human EKVX cells assessed as growth inhibition after 48 hrs by sulforhodamine B assay; conditions: for CC50: read-out: LC50 (the source's name)
[11] = system: M14; assay: Cytotoxicity against human M14 cells assessed as growth inhibition after 48 hrs by sulforhodamine B assay; conditions: M14, 48 h; for CC50: read-out: LC50 (the source's name)
[12] = system: SF-539; assay: Cytotoxicity against human SF539 cells assessed as growth inhibition after 48 hrs by sulforhodamine B assay; conditions: SF-539, 48 h
[13] = system: UO-31; assay: Cytotoxicity against human UO31 cells assessed as growth inhibition after 48 hrs by sulforhodamine B assay; conditions: UO-31, 48 h
[14] = system: HOP-92; assay: Cytotoxicity against human HOP92 cells assessed as growth inhibition after 48 hrs by sulforhodamine B assay; conditions: HOP-92, 48 h
[15] = system: A498; assay: Cytotoxicity against human A498 cells assessed as growth inhibition after 48 hrs by sulforhodamine B assay; conditions: A498, 48 h
[16] = system: 786-0; assay: Cytotoxicity against human 786-0 cells assessed as growth inhibition after 48 hrs by sulforhodamine B assay; conditions: 786-0, 48 h
[17] = system: KM12; assay: Cytotoxicity against human KM12 cells assessed as growth inhibition after 48 hrs by sulforhodamine B assay; conditions: KM12, 48 h
[18] = system: OVCAR-5; assay: Cytotoxicity against human OVCAR5 cells assessed as growth inhibition after 48 hrs by sulforhodamine B assay; conditions: OVCAR-5, 48 h
[19] = system: UACC-257; assay: Cytotoxicity against human UACC257 cells assessed as growth inhibition after 48 hrs by sulforhodamine B assay; conditions: UACC-257, 48 h
[20] = system: MDA-MB-231; assay: Cytotoxicity against human MDA-MB-231 cells assessed as growth inhibition after 48 hrs by sulforhodamine B assay; conditions: MDA-MB-231, 48 h
[21] = system: SW-620; assay: Cytotoxicity against human SW620 cells assessed as growth inhibition after 48 hrs by sulforhodamine B assay; conditions: SW-620, 48 h
[22] = system: SK-MEL-28; assay: Cytotoxicity against human SK-MEL-28 cells assessed as growth inhibition after 48 hrs by sulforhodamine B assay; conditions: SK-MEL-28, 48 h
[23] = system: HOP-62; assay: Cytotoxicity against human HOP62 cells assessed as growth inhibition after 48 hrs by sulforhodamine B assay; conditions: HOP-62, 48 h; for CC50: read-out: LC50 (the source's name)
[24] = system: CCRF-CEM; assay: Cytotoxicity against human CCRF-CEM cells assessed as growth inhibition after 48 hrs by sulforhodamine B assay

## O=C1NC2C(CC(O)C(O)C2O)c2cc3c(c(O)c21)OCO3 (racemic)
[1]
  GI50: 0.115 µM
  TGI: 0.77 µM
  CC50: > 100 µM
[2]
  GI50: 0.0979 µM
  TGI: 0.75 µM
[3]
  GI50: 0.0859 µM
  TGI: 0.39 µM
[4]
  GI50: 0.178 µM
  TGI: 1.56 µM
  CC50: > 100 µM
[5]
  GI50: 0.0529 µM
  TGI: > 100 µM
  CC50: > 100 µM
[6]
  GI50: 0.164 µM
  TGI: 0.85 µM
[7]
  GI50: 0.0754 µM
  TGI: 0.62 µM
[7]; read-out: LC50 (the source's name)
  CC50: 13.2 µM
[8]
  GI50: 0.0949 µM
  TGI: 1.04 µM
  CC50: > 100 µM
[9]
  GI50: 0.0693 µM
  TGI: 0.8 µM
  CC50: > 100 µM
[10]
  GI50: 0.145 µM
  TGI: 1.06 µM
  CC50: > 100 µM
[11]
  GI50: 0.0525 µM
  TGI: 0.22 µM
  CC50: 0.7 µM
[12]
  GI50: 0.0819 µM
  TGI: 0.46 µM
[13]
  GI50: 0.1 µM
  TGI: 1.09 µM
[14]
  GI50: 0.049 µM
  TGI: 0.57 µM
[15]
  GI50: 0.2 µM
  TGI: 0.54 µM
[16]
  GI50: 0.151 µM
  TGI: 1.29 µM
[17]
  GI50: 0.0445 µM
  TGI: 0.32 µM
[18]
  GI50: 0.17 µM
  TGI: 1.05 µM
[19]
  GI50: 0.0687 µM
  TGI: 0.54 µM
[20]
  GI50: 0.1 µM
  TGI: 0.88 µM
[21]
  GI50: 0.0545 µM
  TGI: 0.81 µM
[22]
  GI50: 0.0629 µM
  TGI: 0.48 µM
[23]
  GI50: 0.0568 µM
  TGI: 0.42 µM
  CC50: > 100 µM
[24]
  GI50: 0.0529 µM
  TGI: 2.15 µM

## O=C1NC2C(CC(O)C(O)C2O)c2cc3c(c(O)c21)OCCO3 (racemic)
[1]
  GI50: 0.357 µM
  TGI: 2.64 µM
  CC50: > 100 µM
[2]
  GI50: 0.297 µM
  LC50 (concentration killing 50% of cells): 7.73 µM
  TGI: 1.48 µM
[3]
  GI50: 0.19 µM
  LC50: 5.2 µM
  TGI: 0.71 µM
[4]
  GI50: 0.596 µM
  TGI: 5.85 µM
  CC50: > 100 µM
[5]
  GI50: 0.126 µM
  TGI: 10.7 µM
  CC50: > 100 µM
[6]
  GI50: 0.299 µM
  LC50: > 100 µM
  TGI: 2.14 µM
[8]
  GI50: 0.496 µM
  TGI: 4.03 µM
  CC50: > 100 µM
[9]
  GI50: 0.141 µM
  TGI: 0.89 µM
  CC50: > 100 µM
[10]
  GI50: 0.257 µM
  TGI: 1.27 µM
  CC50: > 100 µM
[11]
  GI50: 0.23 µM
  TGI: 1.19 µM
  CC50: 5.53 µM
[12]
  GI50: 0.228 µM
  LC50: 12.7 µM
  TGI: 0.74 µM
[13]
  GI50: 0.316 µM
  LC50: > 100 µM
  TGI: 2.46 µM
[14]
  GI50: 0.11 µM
  LC50: > 100 µM
  TGI: 1.01 µM
[15]
  GI50: 0.3 µM
  LC50 (concentration killing 50% of cells): 6.86 µM
  TGI: 1.17 µM
[16]
  GI50: 0.254 µM
  LC50 (concentration killing 50% of cells): > 100 µM
  TGI: 1.61 µM
[17]
  GI50: 0.187 µM
  LC50: > 100 µM
  TGI: 1.21 µM
[18]
  GI50: 0.361 µM
  LC50: > 100 µM
  TGI: 2.86 µM
[19]
  GI50: 0.289 µM
  LC50: > 100 µM
  TGI: 1.47 µM
[20]
  GI50: 0.232 µM
  LC50: 13.2 µM
  TGI: 1.16 µM
[21]
  GI50: 0.222 µM
  LC50: > 100 µM
  TGI: 1.22 µM
[22]
  GI50: 0.238 µM
  LC50 (concentration killing 50% of cells): 29.4 µM
  TGI: 0.89 µM
[23]
  GI50: 0.255 µM
  TGI: 0.91 µM
  CC50: 7.27 µM
[24]
  GI50: 0.0737 µM
  LC50 (concentration giving 50% net cell kill): > 100 µM
  TGI: 1.83 µM
